Reference: patent US11485744B2, “High penetration prodrug compositions of antimicrobials and antimicrobial-related compounds” (priority 2009, dated 2022)
Values after ≈ are worked out from the molar mass of the structure shown. Where two headings read alike, the source gives them in different places.

Key:
[1] = mouse, in vivo
Description: In vivo rates of penetration of HPPs of beta-lactam antibiotics through skin and blood-brain barrier of intact hairless mice were studied. […] After 2 hours, the mice were killed. 5 ml of methanol was added to 1 g of homogenized blood, liver, kidney, muscle, or brain. The samples were centrifuged for 5 min and analyzed by HPLC (Table 2).

[2] = Conversion of HPPs to parent drugs in human plasma (half life); type: in vitro ADME; settings: for half-life at 9.1 mg/mL: pH 7.4
Description: HPPs of antimicrobials or antimicrobial-related compounds converted to the parent antimicrobials or antimicrobial-related compounds quickly in good yield in human plasma.
A HPP of antimicrobial or antimicrobial-related compound (10 mg) was dissolved in 0.1 ml of 0.2M pH 7.4 phosphate buffer. 1 ml of human plasma, preheated to 37° C., was added into the mixture. The mixture was kept in a water bath at 37° C., and at every 2 min intervals 0.2 ml of samples were withdrawn and added to 0.4 ml of methanol to precipitate the plasma protein.

[3] = In vitro penetration across isolated human skin in modified Franz cells; settings: pH 7.4; for In vitro Penetration Rate (apparent flux), HPPs / In vitro Penetration Rate (apparent flux), Parent compounds: human, 10 %
Description: Penetration rates of HPPs and their parent drugs through human skin were measured in vitro by modified Franz cells. A Franz cell had two chambers, the top sample chamber and the bottom receiving chamber. The human skin tissue (360-400 μm thick) that separated the top and the receiving chambers was isolated from the anterior or posterior thigh areas.
A test compound (2 mL, 10% in 0.2 M phosphate buffer, pH 7.4) was added to the sample chamber of a Franz cell. The receiving chamber contained 10 ml of 0.2 M phosphate buffer which was stirred at 600 rpm. The amount of the tested compound penetrating the skin was determined by high-performance liquid chromatography (HPLC) method.

[4] = tested on: methicillin-resistant Staphylococcus aureus (MRSA); assay: MIC against MRSA; type: cell-based; settings: Table 6a
E. coli [5] = assay: MIC against E. coli; settings: for MIC: Escherichia coli, read-out: MIC, E. coli; for MIC, E. coli: Table 6c
Description: (§2) Minimum inhibitory concentrations (MICs) of the antimicrobials and their pro-drugs were assessed according to Jennifer M. Andrews, Journal of Antimicrobial Chemotherapy 48, suppl.

E. faecalis = assay: MIC against E. faecalis; type: cell-based; settings: Table 6c; for MIC: Enterococcus faecalis
S. aureus = assay: MIC against S. aureus; settings: for MIC: Staphylococcus aureus, read-out: MIC, S. aureus; for MIC, S. aureus: Table 6c
Description: as §2

Fusarium aquaductum = assay: Antifungal MIC in vitro; type: cell-based
[6] = tested on: Trichophyton mentagrophytes; assay: Antifungal MIC in vitro; type: cell-based
Aspergillus nidulans = assay: Antifungal MIC in vitro; type: cell-based
[7] = tested on: Penicillium carylophilium; assay: Antifungal MIC in vitro; type: cell-based
Fusarium oxisporum = assay: Antifungal MIC in vitro; type: cell-based
Microsporum canis = assay: Antifungal MIC in vitro; type: cell-based
Aspergillus niger = assay: Antifungal MIC in vitro; type: cell-based
Aspergillus giganteus = assay: Antifungal MIC in vitro; type: cell-based
[8] = Clinical cure of cow mastitis, topical treatment; type: in vivo, lactating dairy cows; settings: cows, 500 mg in 10 ml pH 7.4 phosphate buffer sprayed on skin of udder twice per day
Description: (§1) 90 lactating dairy cows were recruited. Bacteriological cure was considered to have been achieved if the samples taken from the affected quarter on day 17 and day 22 were free of the bacterial species isolated in the pretreatment sample. Clinical cure was defined as the disappearance of clinical signs of disease which were observed on day 1 before treatment, in other words by the return to normal feed intake, rectal temperature<39.0° C., good general condition, absence of udder edema, normal milk appearance, and normal milk yield.

Candida albicans = assay: Antifungal MIC in vitro; type: cell-based
Aspergillus tereus = assay: Antifungal MIC in vitro; type: cell-based
[9] = tested on: Coagulase-negative staphylococci; assay: Bacteriological cure of cow mastitis, topical treatment; type: in vivo; settings: cows, day 22, topical 500 mg twice per day
Description: as §1

E. coli [10] = assay: as above; type: in vivo; settings: cows, day 22, topical 500 mg twice per day
Description: as §1

Enterobacteriaceae = assay: as above; type: in vivo; settings: cows, day 22, topical 500 mg twice per day
Description: as §1

Streptococcus uberis = assay: as above; type: in vivo; settings: cows, day 22, topical 500 mg twice per day
Description: as §1

Staphylococcus aureus = assay: as above; type: in vivo; settings: cows, day 22, topical 500 mg twice per day
Description: as §1

[11] = Staphylococcus aureus, MRSA, read-out: MIC

Compound: CCN(CC)CCOC(=O)C1N2C(=O)C(NC(=O)C3C(c4ccccc4)=NOC3C)C2SC1(C)C.Cl (stereo not drawn) [6-(5-methyl-3-phenyl-2-isoxazoline-4-carboxamido)penicillinic acid 2-diethylaminoethyl ester hydrochloride]
- Amount of parent drug found in Blood [1]: 28 ± 5 µg/g
- Amount of parent drug found in Brain [1]: 8 ± 6 µg/g
- Amount of parent drug found in Kidney [1]: 16 ± 5 µg/g
- Amount of parent drug found in Liver [1]: 18 ± 7 µg/g
- Amount of parent drug found in Muscel [1]: 22 ± 5 µg/g
- Half life of HPPs in plasma ([2]; human, plasma): 12 ± 1 min

Compound: CCN(CC)CCOC(=O)C1N2C(=O)C(NC(=O)c3c(-c4ccccc4Cl)noc3C)C2SC1(C)C.Cl (stereo not drawn) [6-[3-(o-chlorophenyl)-5-methyl-4-isoxazolecarboxamido]penicillinic acid 2-diethylaminoethyl ester hydrochloride]
- Amount of parent drug found in Blood [1]: 25 ± 8 µg/g
- Amount of parent drug found in Brain [1]: 9 ± 5 µg/g
- Amount of parent drug found in Kidney [1]: 12 ± 7 µg/g
- Amount of parent drug found in Liver [1]: 14 ± 6 µg/g
- Amount of parent drug found in Muscel [1]: 20 ± 7 µg/g
- Half life of HPPs in plasma ([2]; human, plasma): 8 ± 1 min

Compound: CCN(CC)CCOC(=O)C1=C(CSc2nnnn2C)CSC2C(NC(=O)C(O)c3ccccc3)C(=O)N12.Cl (stereo not drawn) [7-[(hydroxyphenylacetyl)amino]-3-[[(1-methyl-1H-tetrazol-5-yl)thio]methyl]-8-oxo-5-thia-1-azabicyclo[4.2.0]oct-2-ene-2-carboxylic acid 2-diethylaminoethyl ester hydrochloride]
- In vitro Penetration Rate (apparent flux), HPPs [3]: 0.75 ± 0.05 mg/cm^2/h
- half-life at 9.1 mg/mL ([2]; human, plasma): 10 min

Compound: CCOC(=O)Cn1nnnc1SCC1=C(C(=O)OCCN(CC)CC)N2C(=O)C(NC(=O)Cc3ccccc3CNC(C)=O)C2SC1.Cl (stereo not drawn) [7-[[[2-(acetylaminomethyl)phenyl]acetyl]amino]-3-[[[1-(ethoxylcarbonylmethyl)-1H-tetrazol-5-yl]thio]methyl]-8-oxo-5-thia-1-azabicyclo[4.2.0]oct-2-ene-2-carboxylic acid 2-diethylaminoethyl ester hydrochloride]
- In vitro Penetration Rate (apparent flux), HPPs [3]: 0.52 ± 0.04 mg/cm^2/h
- half-life at 9.1 mg/mL ([2]; human, plasma): 9 min

Compound: CCN(CC)CCOC(=O)C1=C(CSc2nnnn2C)CSC2C(NC(=O)C(NC(=O)N3CCN(CC)C(=O)C3=O)c3ccc(OC(C)=O)cc3)C(=O)N12.Cl (stereo not drawn) [7-[[[[(4-ethyl-2,3-dioxo-1-piperazinyl)carbonyl]amino](4-acetoxyphenyl)acetyl]amino]-3-[[(1-methyl-1H-tetrazol-5-yl)thio]methyl]-8-oxo-5-thia-1-azabicyclo[4.2.0]oct-2-ene-2-carboxylic acid 2-diethylaminoethyl ester hydrochloride]
- In vitro Penetration Rate (apparent flux), HPPs [3]: 0.57 ± 0.04 mg/cm^2/h
- half-life at 9.1 mg/mL ([2]; human, plasma): 12 min

Compound: CO/N=C(\C(=O)N[C@@H]1C(=O)N2C(C(=O)O)=CCS[C@H]12)c1csc(N)n1 [Ceftizoxime, reference compound]
- MIC [4, 11]: 2790 µg/mL (≈ 7270 µM)
- In vitro Penetration Rate (apparent flux), Parent compounds [3]: <0.010 mg/cm^2/h

Compound: O=C(O)c1cn(C2CC2)c2cc(N3CCNCC3)c(F)cc2c1=O [Ciprofloxacin, 1-cyclopropyl-6-fluoro-4-oxo-7-piperazin-1-yl-quinoline-3-carboxylic acid]
- MIC (E. coli [5]): 10 µg/mL (≈ 30.2 µM)
- MIC (E. faecalis): 2 µg/mL (≈ 6.04 µM)
- MIC (S. aureus): 128 µg/mL (≈ 386 µM)

Compound: COc1cccc(OC)c1C(=O)N[C@@H]1C(=O)N2[C@@H]1SC(C)(C)[C@@H]2C(=O)O [Methicillin, reference compound]
- MIC [4, 11]: 2160 µg/mL (≈ 5670 µM)
- In vitro Penetration Rate (apparent flux), Parent compounds [3]: <0.001 mg/cm^2/h

Compound: Cc1onc(-c2ccccc2)c1C(=O)N[C@@H]1C(=O)N2[C@@H]1SC(C)(C)[C@@H]2C(=O)O [Oxacillin, reference compound]
- In vitro Penetration Rate (apparent flux), Parent compounds [3]: <0.001 mg/cm^2/h
- drug detected in blood, liver, kidney, muscle or brain of mice treated with only the parent drug [1]: No drug was detected

Compound: Cc1noc(NS(=O)(=O)c2ccc(N)cc2)c1C [Sulfisoxazole]
- MIC (E. coli [5]): 16 µg/mL (≈ 59.9 µM)
- MIC (E. faecalis): 55 µg/mL (≈ 206 µM)
- MIC (S. aureus): 64 µg/mL (≈ 239 µM)

Compound: CCCCOC(=O)c1cn(C2CC2)c2cc(N3CCNCC3)c(F)cc2c1=O.Cl [ciprofloxacin-BE, 1-cyclopropyl-6-fluoro-4-oxo-7-piperazin-1-yl-quinoline-3-carboxylic acid butyl ester•HCl salt]
- MIC, E. coli (E. coli [5]): 0.2 µg/mL
- MIC, E. faecalis (E. faecalis): 0.05 µg/mL
- MIC, S. aureus (S. aureus): 5 µg/mL
- In vitro Penetration Rate (apparent flux), HPPs of sulfonamides, sulfones, quinolones [3]: 0.29 ± 0.02 mg/cm^2/h

Compound: CCN(CC)CCOC(=O)C1N2C(=O)C(NC(=O)c3c(OC)cccc3OC)C2SC1(C)C.Cl (stereo not drawn) [methicillin-DEE, 6-(2,6-dimethoxybenzamido)penicillinic acid 2-diethylaminoethyl ester hydrochloride]
- Minimum inhibitory concentration, Fusarium aquaductum (Fusarium aquaductum): 10 µg/mL
- Minimum inhibitory concentration, Trichophyton mentagrophytes [6]: 22 µg/mL
- Minimum inhibitory concentration, Aspergillus nidulans (Aspergillus nidulans): 8 µg/mL
- Minimum inhibitory concentration, Penicillium carylophilium [7]: 9 µg/mL
- Minimum inhibitory concentration, Fusarium oxisporum (Fusarium oxisporum): 8 µg/mL
- Minimum inhibitory concentration, Microsporum canis (Microsporum canis): 8 µg/mL
- Minimum inhibitory concentration, Aspergillus niger (Aspergillus niger): 9 µg/mL
- Minimum inhibitory concentration, Aspergillus giganteus (Aspergillus giganteus): 9 µg/mL
- Clinical Cure Rate, Day 3 [8]: 43%
- Clinical Cure Rate, Day 8 [8]: 90%
- Clinical Cure Rate, Day 15 [8]: 97%
- Clinical Cure Rate, Day 22 [8]: 100%
- Minimum inhibitory concentration, Candida albicans (Candida albicans): 16 µg/mL
- Minimum inhibitory concentration, Aspergillus tereus (Aspergillus tereus): 12 µg/mL
- Half life of HPPs in plasma ([2]; human plasma, 37° C.): 10 ± 1 min
- Bacteriological cure rate, Coagulase-negative staphylococci [9]: 85.7%
- Bacteriological cure, No. cured, Coagulase-negative staphylococci [9]: 6
- Bacteriological cure rate, E. coli (E. coli [10]): 80%
- Bacteriological cure, No. cured, E. coli (E. coli [10]): 8
- Bacteriological cure rate, Enterobacteriaceae (Enterobacteriaceae): 75%
- Bacteriological cure, No. cured, Enterobacteriaceae (Enterobacteriaceae): 6
- Bacteriological cure rate, Streptococcus uberis (Streptococcus uberis): 70%
- Bacteriological cure, No. cured, Streptococcus uberis (Streptococcus uberis): 7
- Bacteriological cure rate, Staphylococcus aureus (Staphylococcus aureus): 80%
- Bacteriological cure, No. cured, Staphylococcus aureus (Staphylococcus aureus): 4

Compound: COc1cccc(OC)c1C(=O)NC1C(=O)N2C1SC(C)(C)C2C(=O)OCC1CCCN1.Cl (stereo not drawn) [methicillin-PME, 6-(2,6-dimethoxybenzamido)penicillinic acid 2-pyrrolidinemethyl ester hydrochloride]
- MIC [4]: 10 µg/mL

Compound: CCn1cc(C(=O)O)c(=O)c2ccc(C)nc21 [nalidixic acid, 1-ethyl-7-methyl-4-oxo-[1,8]naphthyridine-3-carboxylic acid]
- MIC (E. coli [5]): 6 µg/mL (≈ 25.8 µM)
- MIC (E. faecalis): 64 µg/mL (≈ 276 µM)
- MIC (S. aureus): 158 µg/mL (≈ 680 µM)

Compound: CCN(CC)CCOC(=O)c1cn(CC)c2nc(C)ccc2c1=O.Cl [nalidixic acid-DEE, 1-ethyl-7-methyl-4-oxo-[1,8]naphthyridine-3-carboxylic acid N,N-diethylaminoethyl ester•HCl salt]
- MIC, E. coli (E. coli [5]): 0.2 µg/mL
- MIC, E. faecalis (E. faecalis): 1 µg/mL
- MIC, S. aureus (S. aureus): 5 µg/mL
- In vitro Penetration Rate (apparent flux), HPPs of sulfonamides, sulfones, quinolones [3]: 0.25 ± 0.04 mg/cm^2/h

Compound: CC1(C)SC2C(NC(=O)COc3ccccc3)C(=O)N2C1C(=O)OCCN1CCCCC1.Cl (stereo not drawn) [penicillin V-PEE, 6-phenoxyacetacetamidopenicillanic acid 1-piperidineethyl ester hydrochloride]
- MIC [4]: 1 µg/mL

Compound: penicillin V [reference compound]
- MIC [4]: 3524 µg/mL
